The values that follow are results of earlier work, collected in patent publication US20030215513A1, “Method for releasing nanosized particles of an active substance from a diffusion-controlled pharmaceutical composition for oral use” (priority 2002, published 2003).

Structures are written as SMILES. Where two headings read alike, the source gives them in different places.

As for `OC[C@@H](O)[C@@H](O)[C@H](O)[C@H](O)CO` [mannitol], the saturated concentration entry (at 37° C.) is given as “about 17%”.

As for `OC[C@@H](O)[C@@H](O)[C@H](O)[C@@H](O)CO` [sorbitol], the saturated concentration entry (at 25° C.) is “about 66%”.
